Data from ChEMBL document CHEMBL5725428, “15-aryl prostaglandins as EP4 agonists, and methods of use thereof” (2017).
pKi: −log10 of the molar value.

Key:
[1] = target: Prostaglandin E2 receptor EP4 subtype (Homo sapiens, UniProt P35408); assay: (§1) cAMP Assay: A 384-well drug plate was prepared to contain 6 test compounds, PGE2 and cAMP in 16 serial dilutions in triplicate, using a Biomek station. HEK-EBNA cells expressing a target PG receptor subtype (EP2 or EP4) were suspended in a stimulation buffer (HBSS, 0.1% BSA, 0.5 mM IBMX and 5 mM HEPES, pH 7.4) in a density of 10^4 cells/5 microliters. The reaction was initiated by mixing 5 microliters drug dilutions with 5 microliters of HEK-EBNA cells in a well, carried out for 30 min at room temperature, and followed by the addition of 5 microliters anti-cAMP acceptor beads in the control buffer with Tween-20 (25 mM NaCl, 0.03% Tween-20, 5 mM HEPES, pH 7.4). After 30 min in the dark at room temperature, the mixtures were incubated with 15 microliters biotinylated-cAMP/streptavidin donor beads in Lysis/Detection buffer (0.1% BSA, 0.3% Tween-20 and 5 mM HEPES, pH 7.4) for 45 min at room temperature. Fluorescence changes were read using a Fusion-alpha microplate reader.; format: cell-based
Chain of Prostaglandin E2 receptor EP4 subtype (P35408 whole entry): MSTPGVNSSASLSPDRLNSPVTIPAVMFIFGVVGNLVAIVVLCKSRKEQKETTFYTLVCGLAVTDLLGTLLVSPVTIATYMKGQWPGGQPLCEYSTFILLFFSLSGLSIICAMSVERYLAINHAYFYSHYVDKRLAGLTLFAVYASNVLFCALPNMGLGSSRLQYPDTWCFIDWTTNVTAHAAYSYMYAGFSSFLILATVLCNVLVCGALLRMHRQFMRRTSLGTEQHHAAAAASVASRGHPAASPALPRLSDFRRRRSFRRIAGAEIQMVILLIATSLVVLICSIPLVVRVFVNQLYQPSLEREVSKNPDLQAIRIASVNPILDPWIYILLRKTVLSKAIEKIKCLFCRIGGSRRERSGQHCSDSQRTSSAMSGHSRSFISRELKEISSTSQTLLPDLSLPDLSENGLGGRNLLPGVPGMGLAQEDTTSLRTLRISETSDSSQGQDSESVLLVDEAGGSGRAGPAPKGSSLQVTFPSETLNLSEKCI

[2] = target: Prostaglandin E2 receptor EP2 subtype (Homo sapiens, UniProt P43116); assay: as §1; format: cell-based
Chain of Prostaglandin E2 receptor EP2 subtype (P43116 whole entry): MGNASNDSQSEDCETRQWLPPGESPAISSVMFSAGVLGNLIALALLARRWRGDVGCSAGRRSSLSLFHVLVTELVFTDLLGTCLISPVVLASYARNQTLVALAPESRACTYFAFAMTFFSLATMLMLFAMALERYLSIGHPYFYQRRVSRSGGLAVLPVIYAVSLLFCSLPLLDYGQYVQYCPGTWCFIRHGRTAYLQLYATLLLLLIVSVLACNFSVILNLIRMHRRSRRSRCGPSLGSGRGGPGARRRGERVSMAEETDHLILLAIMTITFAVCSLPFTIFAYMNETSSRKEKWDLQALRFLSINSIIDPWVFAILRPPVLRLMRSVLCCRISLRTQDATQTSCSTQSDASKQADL

Structure (SMILES): Cc1cc(Cl)ccc1-c1cc(C(O)/C=C/[C@H]2CCC(=O)N2CCCc2ccc(C(=O)O)cc2)ccc1F (single isomer, unassigned)
- pKi [1]: 5.97
- pKi [2]: 5.13
